The values that follow come from patent US8829007B2 (priority 2009, dated 2014).

For the test, the system named is influenza A virus (A/PR/8/34). The test can be described thus: microbe, parasite or virus in culture. In kind it is cell-based. The following applies: Influenza A virus, PR/8, MDCK, read-out: IC50 (mean all).
Setting [1] is: MDCK cells infected with A/PR/8/34, cell protection (CPE).

Each structure is given as a SMILES string. Like-named read-outs stand apart in the source and are kept apart here.

For `O=C(Nc1cccnc1)N1CCC[C@@H](CNc2nc(-c3c[nH]c4ncc(Cl)cc34)ncc2F)C1` [Compound 40, (S)-3-((2-(5-chloro-1H-pyrrolo[2,3-b]pyridin-3-yl)-5-fluoropyrimidin-4-ylamino)methyl)-N-(pyridin-3-yl)piperidine-1-carboxamide], the IC50 under setting [1] was > 20 µM.

Turning to `CC(C)(C)CC(=O)N1CCC[C@@H](CNc2nc(-c3c[nH]c4ncc(Cl)cc34)ncc2F)C1` [Compound 42, (S)-1-(3-((2-(5-chloro-1H-pyrrolo[2,3-b]pyridin-3-yl)-5-fluoropyrimidin-4-ylamino)methyl)piperidin-1-yl)-3,3-dimethylbutan-1-one], under setting [1], the IC50 was > 20 µM. The same measure, in the same setting: in the case of `C[N+](C)(C)CC(=O)N1CCC[C@@H](CNc2nc(-c3c[nH]c4ncc(Cl)cc34)ncc2F)C1` [Compound 43, (S)-2-(3-((2-(5-chloro-1H-pyrrolo[2,3-b]pyridin-3-yl)-5-fluoropyrimidin-4-ylamino)methyl)piperidin-1-yl)-N,N,N-trimethyl-2-oxoethanaminium] it was > 20 µM; in that of `CN(C)CC(=O)N1CCC[C@@H](CNc2nc(-c3c[nH]c4ncc(Cl)cc34)ncc2F)C1` [Compound 46, (S)-1-(3-((2-(5-chloro-1H-pyrrolo[2,3-b]pyridin-3-yl)-5-fluoropyrimidin-4-ylamino)methyl)piperidin-1-yl)-2-(dimethylamino)ethanone], > 20 µM; in that of `O=C(Cn1cnnn1)N1CCC[C@@H](CNc2nc(-c3c[nH]c4ncc(Cl)cc34)ncc2F)C1` [Compound 48, (S)-1-(3-((2-(5-chloro-1H-pyrrolo[2,3-b]pyridin-3-yl)-5-fluoropyrimidin-4-ylamino)methyl)piperidin-1-yl)-2-(1H-tetrazol-1-yl)ethanone], > 20 µM.

With `O=C(Cn1ccnc1)N1CCC[C@@H](CNc2nc(-c3c[nH]c4ncc(Cl)cc34)ncc2F)C1` [Compound 50, (S)-1-(3-((2-(5-chloro-1H-pyrrolo[2,3-b]pyridin-3-yl)-5-fluoropyrimidin-4-ylamino)methyl)piperidin-1-yl)-2-(1H-imidazol-1-yl)ethanone], the IC50 under setting [1] was > 20 µM. Turning to `O=C(O)CCCC(=O)N1CCC[C@H](CNc2nc(-c3c[nH]c4ncc(Cl)cc34)ncc2F)C1` [Compound 53, (R)-5-(3-((2-(5-chloro-1H-pyrrolo[2,3-b]pyridin-3-yl)-5-fluoropyrimidin-4-ylamino)methyl)piperidin-1-yl)-5-oxopentanoic acid], under setting [1], the IC50 was in the range of 5 to 20 µM. Same read-out and setting: the same measure for `O=C(O)COCC(=O)N1CCC[C@H](CNc2nc(-c3c[nH]c4ncc(Cl)cc34)ncc2F)C1` [Compound 54, (R)-2-(2-(3-((2-(5-chloro-1H-pyrrolo[2,3-b]pyridin-3-yl)-5-fluoropyrimidin-4-ylamino)methyl)piperidin-1-yl)-2-oxoethoxy)ethanoic acid]: 5 to 20 µM. Still for that read-out and setting: the same measure for `O=C(c1ccccc1F)N1CCC[C@H](CNc2nc(-c3c[nH]c4ncc(Cl)cc34)ncc2F)C1` [Compound 58, (R)-(3-((2-(5-chloro-1H-pyrrolo[2,3-b]pyridin-3-yl)-5-fluoropyrimidin-4-ylamino)methyl)piperidin-1-yl)(2-fluorophenyl)methanone]: < 5 µM.

For `COC(=O)c1ccc(OC(=O)N2CCC[C@H](CNc3nc(-c4c[nH]c5ncc(Cl)cc45)ncc3F)C2)cc1` [Compound 63, (R)-4-(methoxycarbonyl)phenyl 3-((2-(5-chloro-1H-pyrrolo[2,3-b]pyridin-3-yl)-5-fluoropyrimidin-4-ylamino)methyl)piperidine-1-carboxylate], the IC50 is > 20 µM. Same read-out and setting: in the case of `Cc1ccc(OC(=O)N2CCC[C@H](CNc3nc(-c4c[nH]c5ncc(Cl)cc45)ncc3F)C2)cc1` [Compound 71, (R)-p-tolyl 3-((2-(5-chloro-1H-pyrrolo[2,3-b]pyridin-3-yl)-5-fluoropyrimidin-4-ylamino)methyl)piperidine-1-carboxylate] it was 5 to 20 µM; in that of `O=C(Oc1cccc(C(F)(F)F)c1)N1CCC[C@H](CNc2nc(-c3c[nH]c4ncc(Cl)cc34)ncc2F)C1` [Compound 72, (R)-3-(trifluoromethyl)phenyl 3-((2-(5-chloro-1H-pyrrolo[2,3-b]pyridin-3-yl)-5-fluoropyrimidin-4-ylamino)methyl)piperidine-1-carboxylate], 5 to 20 µM; in that of `O=C(Oc1ccc(F)cc1)N1CCC[C@H](CNc2nc(-c3c[nH]c4ncc(Cl)cc34)ncc2F)C1` [Compound 73, (R)-4-fluorophenyl 3-((2-(5-chloro-1H-pyrrolo[2,3-b]pyridin-3-yl)-5-fluoropyrimidin-4-ylamino)methyl)piperidine-1-carboxylate], 5 to 20 µM.

Turning to `CC(=O)c1cccc(NC(=O)N2CCC[C@H](CNc3nc(-c4c[nH]c5ncc(Cl)cc45)ncc3F)C2)c1` [Compound 77, (R)-3-((2-(5-chloro-1H-pyrrolo[2,3-b]pyridin-3-yl)-5-fluoropyrimidin-4-ylamino)methyl)-N-(3-ethanoylphenyl)piperidine-1-carboxamide], under setting [1], the IC50 was 5 to 20 µM.

As to `O=C(Nc1cccc(C(F)(F)F)c1)N1CCC[C@H](CNc2nc(-c3c[nH]c4ncc(Cl)cc34)ncc2F)C1` [Compound 79, (R)-3-((2-(5-chloro-1H-pyrrolo[2,3-b]pyridin-3-yl)-5-fluoropyrimidin-4-ylamino)methyl)-N-(3-(trifluoromethyl)phenyl)piperidine-1-carboxamide], under setting [1], the IC50 is 5 to 20 µM.

Consider `O=C(O)c1nccnc1C(=O)N1CCC[C@H](CNc2nc(-c3c[nH]c4ncc(Cl)cc34)ncc2F)C1` [Compound 82, (R)-3-(3-((2-(5-chloro-1H-pyrrolo[2,3-b]pyridin-3-yl)-5-fluoropyrimidin-4-ylamino)methyl)piperidine-1-carbonyl)pyrazine-2-carboxylic acid], for which, under setting [1], the IC50 is > 20 µM.

For `O=C(O)[C@H]1C[C@H]1C(=O)N1CCC[C@H](CNc2nc(-c3c[nH]c4ncc(Cl)cc34)ncc2F)C1` [Compound 83, (1S,2R)-2-((R)-3-((2-(5-chloro-1H-pyrrolo[2,3-b]pyridin-3-yl)-5-fluoropyrimidin-4-ylamino)methyl)piperidine-1-carbonyl)cyclopropanecarboxylic acid], the IC50 under setting [1] was > 20 µM. Still for that read-out and setting: the same measure for `O=C(c1c(Cl)cccc1Cl)N1CCC[C@H](CNc2nc(-c3c[nH]c4ncc(Cl)cc34)ncc2F)C1` [Compound 96, (R)-(3-((2-(5-chloro-1H-pyrrolo[2,3-b]pyridin-3-yl)-5-fluoropyrimidin-4-ylamino)methyl)piperidin-1-yl)(2,6-dichlorophenyl)methanone]: 5 to 20 µM.

With `O=C(c1ccc2c(c1)OCO2)N1CCC[C@H](CNc2nc(-c3c[nH]c4ncc(Cl)cc34)ncc2F)C1` [Compound 103, (R)-benzo[d][1,3]dioxol-5-yl(3-((2-(5-chloro-1H-pyrrolo[2,3-b]pyridin-3-yl)-5-fluoropyrimidin-4-ylamino)methyl)piperidin-1-yl)methanone], the IC50 under setting [1] is < 5 µM. On the same count and under the same terms, the same measure for `CC(C)(C)OC(=O)N1CCC[C@H](CNc2nc(-c3c[nH]c4ncc(N)cc34)ncc2F)C1` [Compound 114, (R)-tert-butyl 3-((2-(5-amino-1H-pyrrolo[2,3-b]pyridin-3-yl)-5-fluoropyrimidin-4-ylamino)methyl)piperidine-1-carboxylate]: > 20 µM. Still for that read-out and setting: in the case of `N[C@@H]1CCCC[C@H]1Nc1nc(-c2c[nH]c3ncc(Cl)cc23)ncc1Cl` [Compound 115, (1R,2R)—N1-(5-chloro-2-(5-chloro-1H-pyrrolo[2,3-b]pyridin-3-yl)pyrimidin-4-yl)cyclohexane-1,2-diamine] it was > 20 µM; in that of `Cc1cnc(-c2c[nH]c3ncc(Cl)cc23)nc1NC1CCCCC1N` (centres unmarked) [Compound 116, N1-(2-(5-chloro-1H-pyrrolo[2,3-b]pyridin-3-yl)-5-methylpyrimidin-4-yl)cyclohexane-1,2-diamine], > 20 µM.

As for `CCOC(=O)CCNC(=O)N1CCC[C@H](CNc2nc(-c3c[nH]c4ncc(Cl)cc34)ncc2F)C1` [Compound 118, (R)-ethyl 3-(3-((2-(5-chloro-1H-pyrrolo[2,3-b]pyridin-3-yl)-5-fluoropyrimidin-4-ylamino)methyl)piperidine-1-carboxamido)propanoate], the IC50 under setting [1] is 5 to 20 µM. In the case of `Cc1csc(NC(=O)N2CCC[C@H](CNc3nc(-c4c[nH]c5ncc(Cl)cc45)ncc3F)C2)c1` [Compound 130, (R)-3-((2-(5-chloro-1H-pyrrolo[2,3-b]pyridin-3-yl)-5-fluoropyrimidin-4-ylamino)methyl)-N-(4-methylthiophen-2-yl)piperidine-1-carboxamide], the 50% inhibitory concentration (IC50) under setting [1] is < 5 µM. Still for that read-out and setting: the same measure for `COC(CN1CCC[C@@H](CNc2nc(-c3c[nH]c4ncc(Cl)cc34)ncc2F)C1)OC` [Compound 132, (S)-2-(5-chloro-1H-pyrrolo[2,3-b]pyridin-3-yl)-N-((1-(2,2-dimethoxyethyl)piperidin-3-yl)methyl)-5-fluoropyrimidin-4-amine]: > 20 µM; for `OCCN1CCC[C@@H](CNc2nc(-c3c[nH]c4ncc(Cl)cc34)ncc2F)C1` [Compound 133, (S)-2-(3-((2-(5-chloro-1H-pyrrolo[2,3-b]pyridin-3-yl)-5-fluoropyrimidin-4-ylamino)methyl)piperidin-1-yl)ethanol]: > 20 µM. Regarding `Fc1cnc(-c2c[nH]c3ncc(Cl)cc23)nc1NC[C@@H]1CCCN(CC2CCCCC2)C1` [Compound 134, (S)-2-(5-chloro-1H-pyrrolo[2,3-b]pyridin-3-yl)-N-((1-(cyclohexylmethyl)piperidin-3-yl)methyl)-5-fluoropyrimidin-4-amine], the IC50 under setting [1] lay within 5 to 20 µM. Still for that read-out and setting: the same measure for `C[C@H](CO)CN1CCCC(CNc2nc(-c3c[nH]c4ncc(Cl)cc34)ncc2F)C1` (some centres unmarked) [Compound 135]: > 20 µM.

With `Cc1cccc(CN2CCC[C@@H](CNc3nc(-c4c[nH]c5ncc(Cl)cc45)ncc3F)C2)c1` [Compound 137, (S)-2-(5-chloro-1H-pyrrolo[2,3-b]pyridin-3-yl)-5-fluoro-N-((1-(3-methylbenzyl)piperidin-3-yl)methyl)pyrimidin-4-amine], the IC50 under setting [1] was > 20 µM.

As usually defined, the IC50 is the concentration that gives 50% inhibition.
